Experimental data reported in ChEMBL document CHEMBL1142848, “Synthesis and antibacterial activity of N-(5-benzylthio-1,3,4-thiadiazol-2-yl) and N-(5-benzylsulfonyl-1,3,4-thiadiazol-2-yl)piperazinyl quinolone derivatives” (2005).
Converted amounts (≈) assume the structure as drawn.

Columns and labels:
Assay type in all cases: functional
Escherichia coli = test: Minimum inhibitory concentration against Escherichia coli
Bacillus subtilis = test: Minimum inhibitory concentration against Bacillus subtilis
Klebsiella pneumoniae = test: Minimum inhibitory concentration against Klebsiella pneumoniae
Pseudomonas aeruginosa = test: Minimum inhibitory concentration against Pseudomonas aeruginosa
Staphylococcus aureus = test: Minimum inhibitory concentration against Staphylococcus aureus
[1] = tested on: Staphylococcus epidermidis; test: Minimum inhibitory concentration against Staphylococcus epidermidis

MIC (Escherichia coli) [µg/mL] | MIC (Bacillus subtilis) [µg/mL] | MIC (Klebsiella pneumoniae) [µg/mL] | MIC (Pseudomonas aeruginosa) [µg/mL] | MIC (Staphylococcus aureus) [µg/mL] | MIC [1] [µg/mL] | Compound
32 (≈ 53.1 µM) | 16 (≈ 26.6 µM) | 64 (≈ 106 µM) | > 64 | > 64 | > 64 | CCn1cc(C(=O)O)c(=O)c2cc(F)c(N3CCN(c4nnc(S(=O)(=O)Cc5ccccc5[N+](=O)[O-])s4)CC3)cc21
> 64 | 32 (≈ 53.1 µM) | > 64 | > 64 | 64 (≈ 106 µM) | 8 (≈ 13.3 µM) | CCn1cc(C(=O)O)c(=O)c2cc(F)c(N3CCN(c4nnc(S(=O)(=O)Cc5ccc([N+](=O)[O-])cc5)s4)CC3)cc21
1 (≈ 1.63 µM) | 1 (≈ 1.63 µM) | 4 (≈ 6.51 µM) | > 32 | 4 (≈ 6.51 µM) | 0.03 (≈ 0.0488 µM) | O=C(O)c1cn(C2CC2)c2cc(N3CCN(c4nnc(S(=O)(=O)Cc5ccccc5[N+](=O)[O-])s4)CC3)c(F)cc2c1=O
2 (≈ 3.43 µM) | 4 (≈ 6.87 µM) | 16 (≈ 27.5 µM) | 64 (≈ 110 µM) | 2 (≈ 3.43 µM) | 0.06 (≈ 0.103 µM) | O=C(O)c1cn(C2CC2)c2cc(N3CCN(c4nnc(SCc5ccccc5[N+](=O)[O-])s4)CC3)c(F)cc2c1=O
16 (≈ 28 µM) | 8 (≈ 14 µM) | 16 (≈ 28 µM) | > 64 | 2 (≈ 3.5 µM) | 0.25 (≈ 0.438 µM) | CCn1cc(C(=O)O)c(=O)c2cc(F)c(N3CCN(c4nnc(SCc5cccc([N+](=O)[O-])c5)s4)CC3)cc21
16 (≈ 30.4 µM) | 8 (≈ 15.2 µM) | 16 (≈ 30.4 µM) | > 64 | 16 (≈ 30.4 µM) | 2 (≈ 3.8 µM) | CCn1cc(C(=O)O)c(=O)c2cc(F)c(N3CCN(c4nnc(SCc5ccccc5)s4)CC3)cc21
> 64 | 1 (≈ 1.63 µM) | 64 (≈ 104 µM) | > 64 | 8 (≈ 13 µM) | 2 (≈ 3.25 µM) | O=C(O)c1cn(C2CC2)c2cc(N3CCN(c4nnc(S(=O)(=O)Cc5ccc([N+](=O)[O-])cc5)s4)CC3)c(F)cc2c1=O
> 64 | 8 (≈ 14.3 µM) | > 64 | > 64 | 64 (≈ 115 µM) | 16 (≈ 28.7 µM) | CCn1cc(C(=O)O)c(=O)c2cc(F)c(N3CCN(c4nnc(S(=O)(=O)Cc5ccccc5)s4)CC3)cc21
2 (≈ 3.43 µM) | 4 (≈ 6.87 µM) | 2 (≈ 3.43 µM) | 64 (≈ 110 µM) | 0.5 (≈ 0.858 µM) | 0.06 (≈ 0.103 µM) | O=C(O)c1cn(C2CC2)c2cc(N3CCN(c4nnc(SCc5cccc([N+](=O)[O-])c5)s4)CC3)c(F)cc2c1=O
> 64 | 4 (≈ 7.02 µM) | > 64 | > 64 | 16 (≈ 28.1 µM) | 4 (≈ 7.02 µM) | O=C(O)c1cn(C2CC2)c2cc(N3CCN(c4nnc(S(=O)(=O)Cc5ccccc5)s4)CC3)c(F)cc2c1=O
8 (≈ 13 µM) | 8 (≈ 13 µM) | 16 (≈ 26 µM) | > 64 | 1 (≈ 1.63 µM) | 0.05 (≈ 0.0813 µM) | O=C(O)c1cn(C2CC2)c2cc(N3CCN(c4nnc(S(=O)(=O)Cc5cccc([N+](=O)[O-])c5)s4)CC3)c(F)cc2c1=O
32 (≈ 56.1 µM) | 2 (≈ 3.5 µM) | 64 (≈ 112 µM) | > 64 | 4 (≈ 7.01 µM) | 0.5 (≈ 0.876 µM) | CCn1cc(C(=O)O)c(=O)c2cc(F)c(N3CCN(c4nnc(SCc5ccc([N+](=O)[O-])cc5)s4)CC3)cc21
1 (≈ 1.72 µM) | 0.5 (≈ 0.858 µM) | 2 (≈ 3.43 µM) | 32 (≈ 54.9 µM) | 0.5 (≈ 0.858 µM) | 0.03 (≈ 0.0515 µM) | O=C(O)c1cn(C2CC2)c2cc(N3CCN(c4nnc(SCc5ccc([N+](=O)[O-])cc5)s4)CC3)c(F)cc2c1=O
> 64 | 64 (≈ 106 µM) | > 64 | > 64 | > 64 | 64 (≈ 106 µM) | CCn1cc(C(=O)O)c(=O)c2cc(F)c(N3CCN(c4nnc(S(=O)(=O)Cc5cccc([N+](=O)[O-])c5)s4)CC3)cc21
16 (≈ 28 µM) | 8 (≈ 14 µM) | 32 (≈ 56.1 µM) | > 64 | 4 (≈ 7.01 µM) | 0.5 (≈ 0.876 µM) | CCn1cc(C(=O)O)c(=O)c2cc(F)c(N3CCN(c4nnc(SCc5ccccc5[N+](=O)[O-])s4)CC3)cc21
16 (≈ 29.8 µM) | 4 (≈ 7.44 µM) | 32 (≈ 59.5 µM) | > 64 | 2 (≈ 3.72 µM) | 1 (≈ 1.86 µM) | O=C(O)c1cn(C2CC2)c2cc(N3CCN(c4nnc(SCc5ccccc5)s4)CC3)c(F)cc2c1=O

Compound | MIC (Escherichia coli) [µg/mL] | MIC (Bacillus subtilis) [µg/mL] | MIC (Klebsiella pneumoniae) [µg/mL] | MIC (Pseudomonas aeruginosa) [µg/mL] | MIC (Staphylococcus aureus) [µg/mL] | MIC [1] [µg/mL]
CCn1cc(C(=O)O)c(=O)c2cc(F)c(N3CCNCC3)cc21 [NORFLOXACIN] | 0.25 (≈ 0.783 µM) | 0.06 (≈ 0.188 µM) | 0.25 (≈ 0.783 µM) | 2 (≈ 6.26 µM) | 1 (≈ 3.13 µM) | 0.5 (≈ 1.57 µM)
O=C(O)c1cn(C2CC2)c2cc(N3CCNCC3)c(F)cc2c1=O [CIPROFLOXACIN] | – | 0.015 (≈ 0.0453 µM) | 0.06 (≈ 0.181 µM) | – | 0.5 (≈ 1.51 µM) | 0.25 (≈ 0.754 µM)
